Laboratory results published in patent US7414058B2, “Adenosine A2a receptor antagonists for the treatment of extra-pyramidal syndrome and other movement disorders” (Schering Corporation, priority 2002, dated 2008).

Test system: haloperidol-induced EPS in Cebus apella monkeys
Test: Haloperidol-induced EPS in sensitized Cebus apella monkeys
Type: in vivo
Conditions: for monkeys in which onset of EPS was prevented: group of seven monkeys
Method: A more complete understanding of the invention may be obtained by reading the following description in conjunction with the appended figures relating to haloperidol-induced EPS in Cebus apella monkeys.
Compound A was administered orally (p.o.) at doses of 0.3-30 mg/kg, in conjunction with haloperidol. The studies were conducted using a within-subjects design such that each monkey received all 6 treatments (vehicle and 5 doses of Compound A) in a crossover, balanced design.

[1] = 1 mg/kg p.o., haloperidol 0.3 mg/kg p.o.
[2] = 10 and 30 mg/kg p.o., haloperidol 0.3 mg/kg p.o.

## Nc1nc2c(cnn2CCN2CCN(c3ccc(F)cc3F)CC2)c2nc(-c3ccco3)nn12 [Compound A]
[1]
  monkeys in which onset of EPS was prevented: one
  delay of the onset of EPS: 1 h
3 mg/kg p.o., haloperidol 0.3 mg/kg p.o.
  monkeys in which onset of EPS was prevented: two
3 mg/kg p.o., in the remaining monkeys, haloperidol 0.3 mg/kg p.o.
  delay of the onset of EPS: ~2 h
[2]
  monkeys in which onset of EPS was prevented: three
  delay of the onset of EPS (average): 2.3 to 2.9 h
Compound A 0.3-30 mg/kg p.o. with haloperidol 0.3 mg/kg p.o., FIG. 1A, seven monkeys, crossover
  maximum EPS score: dose-dependent reduction
Compound A 0.3-30 mg/kg p.o. with haloperidol 0.3 mg/kg p.o., FIG. 1B, vs vehicle
  delay in the onset of EPS (dose dependence): dose-dependent delay
